# Where two headings read alike, the source gives them in different places.
# Columns and labels:
# [1] = tested on: tubulin; assay: glutamate-induced polymerization of purified tubulin; format: biochemical
# Experimental: Halistatin 2 was evaluated to determine if it was an antimitotic agent which interfered with the polymerization of purified tubulin and microtubule assembly dependent on microtubule-associated proteins isolated.
# For radiolabeled GTP binding to tubulin, the same drug concentrations inhibited the reaction by 17% and 51% with halistatin 2.
# [2] = tested on: MALME-3M; assay: NCI human tumor in vitro primary screen; format: cell-based; conditions: melanoma
# Source text: (§1) Only two hundred years ago, many diseases ravaged humankind. Many of these diseases now have been controlled or eradicated. In the development of the means to treat or control these diseases, work with the appropriate common experimental animals was of critical importance. With the various types of cancers, and with the HIV virus, such work is presently ongoing. The research for the treatment of various types of cancer is coordinated in the United States by the National Cancer Institute (NCI). NCI, as a government entity, has been charged with assisting anti-cancer research. To establish whether a substance has anti cancer activity, NCI has established a variety of protocols, one of which involves testing the candidate substance against a cell line panel containing 60 human tumor cell lines. This protocol has been verified and is generally accepted throughout the scientific community. This protocol and the established statistical means of evaluating the results obtained therefrom have been fully described in the literature. See Principles & Practice of Oncology PPO Updates, Volume 3, Number 10, Oct. 1989, by Michael R. Boyd, M.D., Ph.D., for an indepth description of the test protocol. The statistical analysis is explained in "Display and Analysis of Patterns of Differential Activity of Drugs Against Human Tumor Cell Lines: Development of Means Graph and COMPARE Algorithm" Journal of the National Cancer Institute Reports Vol. 81, No. 14, Pg. 1088, Jul. 14, 1989, by K. D. Paull et al. Both of these references are incorporated herein by this reference thereto.
# (§2) Biological Testing; Data Display and Analysis; Screening Data Summary. Freshly isolated halistatin 2 was tested in the NCI's human tumor, disease-oriented in vitro primary screen, and data calculations performed. Table 3 is a composite prepared from mean graphs constructed from the averaged GI50 values from quadruplicate screenings of Halistatin 2.
# [3] = tested on: OVCAR-3; assay: NCI human tumor in vitro primary screen; format: cell-based; conditions: ovarian cancer
# Source text: as §1, §2
# [4] = tested on: OVCAR-4; assay: NCI human tumor in vitro primary screen; format: cell-based; conditions: ovarian cancer
# Source text: as §1, §2
# [5] = tested on: U251; assay: NCI human tumor in vitro primary screen; format: cell-based; conditions: U-251, CNS cancer
# Source text: as §1, §2
# [6] = tested on: HOP-62; assay: NCI human tumor in vitro primary screen; format: cell-based; conditions: non-small cell lung cancer
# Source text: as §1, §2
# [7] = tested on: HL-60TB; assay: NCI human tumor in vitro primary screen; format: cell-based; conditions: leukemia
# Source text: as §1, §2
# [8] = tested on: 786-0; assay: NCI human tumor in vitro primary screen; format: cell-based; conditions: renal cancer
# Source text: as §1, §2
# [9] = tested on: UO-31; assay: NCI human tumor in vitro primary screen; format: cell-based; conditions: renal cancer
# Source text: as §1, §2
# [10] = tested on: OVCAR-8; assay: NCI human tumor in vitro primary screen; format: cell-based; conditions: ovarian cancer
# Source text: as §1, §2
# [11] = tested on: CCRF-CEM; assay: NCI human tumor in vitro primary screen; format: cell-based; conditions: leukemia
# Source text: as §1, §2
# [12] = tested on: IGROV-1; assay: NCI human tumor in vitro primary screen; format: cell-based
# Source text: as §1, §2
# [13] = tested on: SF-295; assay: NCI human tumor in vitro primary screen; format: cell-based; conditions: CNS cancer
# Source text: as §1, §2
# [14] = tested on: SK-MEL-2; assay: NCI human tumor in vitro primary screen; format: cell-based; conditions: melanoma
# Source text: as §1, §2
# [15] = tested on: SNB-75; assay: NCI human tumor in vitro primary screen; format: cell-based; conditions: CNS cancer
# Source text: as §1, §2
# [16] = tested on: M19-MEL; assay: NCI human tumor in vitro primary screen; format: cell-based; conditions: melanoma
# Source text: as §1, §2
# [17] = tested on: A549/ATCC; assay: NCI human tumor in vitro primary screen; format: cell-based; conditions: non-small cell lung cancer
# Source text: as §1, §2
# [18] = tested on: M14; assay: NCI human tumor in vitro primary screen; format: cell-based; conditions: melanoma
# Source text: as §1, §2
# [19] = tested on: LXFL 529; assay: NCI human tumor in vitro primary screen; format: cell-based
# Source text: as §1, §2
# [20] = tested on: LOX IMVI; assay: NCI human tumor in vitro primary screen; format: cell-based; conditions: melanoma
# Source text: as §1, §2
# [21] = tested on: SK-MEL-28; assay: NCI human tumor in vitro primary screen; format: cell-based; conditions: melanoma
# Source text: as §1, §2
# [22] = tested on: KM12; assay: NCI human tumor in vitro primary screen; format: cell-based; conditions: colon cancer
# Source text: as §1, §2
# [23] = tested on: RXF-393; assay: NCI human tumor in vitro primary screen; format: cell-based
# Source text: as §1, §2
# [24] = read-out: Log10 GI50 (converted)
# [25] = read-out: Log10 TGI (converted)
# [26] = read-out: averaged negative log10 GI50 (converted)
smiles,measurement,setting,value
C=C1CC2CCC34CC5OC6C(O3)C3OC(CCC3OC6(O)C5O4)CC(=O)OC3C(CC4OC(CCC1O2)CC(C)C4=C)OC1CC2OC4(CC2OC1C3C)CC1OC2(CC(C)C3OC5CC(C(O)CO)OC5CC3O2)CC(C)C1O4 (stereo not shown) [halistatin 2],inhibition of tubulin polymerization (in words),[1],inhibited tubulin polymerization
same,IC50,[1]; purified tubulin,4900 ± 500 nM
same,GI50,[2]; [24],0.229 nM
same,IC (TGI),[2]; [25],10 nM
same,GI50,[2]; [26],0.229 nM
same,GI50,[3]; [24],0.282 nM
same,IC (TGI),[3]; [25],1.58 nM
same,GI50,[3]; [26],0.282 nM
same,GI50,[4]; [24],7.76 nM
same,IC (TGI),[4]; [25],10 nM
same,GI50,[4]; [26],7.76 nM
same,GI50,[5]; [24],0.479 nM
same,IC (TGI),[5]; [25],9.33 nM
same,GI50,[5]; [26],0.479 nM
same,GI50,[6]; [24],0.692 nM
same,IC (TGI),[6]; [25],7.59 nM
same,GI50,[6]; [26],0.692 nM
same,GI50,"[7]; HL-60(TB), read-out: Log10 GI50 (converted)",0.158 nM
same,IC (TGI),"[7]; HL-60(TB), read-out: Log10 TGI (converted)",1 nM
same,GI50,"[7]; HL-60TB, read-out: averaged negative log10 GI50 (converted)",0.158 nM
same,GI50,[8]; [24],0.389 nM
same,IC (TGI),[8]; [25],10 nM
same,GI50,[8]; [26],0.389 nM
same,GI50,[9]; [24],6.03 nM
same,IC (TGI),[9]; [25],10 nM
same,GI50,[9]; [26],6.03 nM
same,GI50,[10]; [24],1.29 nM
same,IC (TGI),[10]; [25],7.08 nM
same,GI50,[10]; [26],1.29 nM
same,GI50,[11]; [24],0.2 nM
same,IC (TGI),[11]; [25],4.27 nM
same,GI50,[11]; [26],0.2 nM
same,GI50,"[12]; IGROV1, ovarian cancer, read-out: Log10 GI50 (converted)",0.891 nM
same,IC (TGI),"[12]; IGROV1, ovarian cancer, read-out: Log10 TGI (converted)",10 nM
same,GI50,"[12]; ovarian cancer, read-out: averaged negative log10 GI50 (converted)",0.891 nM
same,GI50,[13]; [24],0.182 nM
same,IC (TGI),[13]; [25],5.25 nM
same,GI50,[13]; [26],0.182 nM
same,GI50,[14]; [24],0.309 nM
same,IC (TGI),[14]; [25],4.57 nM
same,GI50,[14]; [26],0.309 nM
same,GI50,[15]; [24],0.269 nM
same,IC (TGI),[15]; [25],10 nM
same,GI50,[15]; [26],0.269 nM
same,GI50,[16]; [24],0.331 nM
same,IC (TGI),[16]; [25],5.01 nM
same,GI50,[17]; [24],1.82 nM
same,IC (TGI),[17]; [25],10 nM
same,GI50,[17]; [26],1.82 nM
same,GI50,[18]; [24],0.676 nM
same,IC (TGI),[18]; [25],5.75 nM
same,GI50,[18]; [26],0.676 nM
same,GI50,"[19]; LXFL529, non-small cell lung cancer, read-out: Log10 GI50 (converted)",0.447 nM
same,IC (TGI),"[19]; LXFL529, non-small cell lung cancer, read-out: Log10 TGI (converted)",10 nM
same,GI50,"[19]; non-small cell lung cancer, read-out: averaged negative log10 GI50 (converted)",0.447 nM
same,GI50,[20]; [24],0.501 nM
same,IC (TGI),[20]; [25],4.57 nM
same,GI50,[20]; [26],0.501 nM
same,GI50,[21]; [24],1 nM
same,IC (TGI),[21]; [25],10 nM
same,GI50,[21]; [26],1 nM
same,GI50,[22]; [24],0.537 nM
same,IC (TGI),[22]; [25],10 nM
same,GI50,[22]; [26],0.537 nM
same,GI50,"[23]; RXF 393, printed RXP-393, renal cancer, read-out: Log10 GI50 (converted)",0.479 nM
same,IC (TGI),"[23]; RXF 393, printed RXP-393, renal cancer, read-out: Log10 TGI (converted)",3.09 nM
same,GI50,"[23]; RXF-393, renal cancer, read-out: averaged negative log10 GI50 (converted)",0.479 nM

# — patent US5352804A, “Isolation and structure of Halistatin 2” (Arizona Board of Regents, a body corporate, acting on …, priority 1993, dated 1994)
